# How the values were obtained:
# [1] = tested on: MC38 tumors; experiment: MC38 tumor-bearing model; format: in vivo
# Procedure: (§1) [FIG. 1-1] FIG. 1. Chemical activation of SRSFs exerts antitumor effects in a CD8^+ T cell-dependent manner and potentiates the response to PD-1 blockade. A: Experimental procedure involving an MC38 tumor-bearing model. B and C: Tumor volumes (B) and survival (C) are shown (n=12/group). ** represents p<0.01; and *** represents p<0.001. D and E: MC38 cells were treated with Compound 1 for 72 hours (D) or for the indicated time (E). Cell proliferation and cell death were measured using CCK-8 and LDH assays, respectively (n=3/group). F and G: Representative images (F) and quantitative data (G) of flow cytometry are shown (n=[…]/group). * represents p<0.05. H: Experimental procedure of antibody injection in an MC38 tumor-bearing model.
# [FIG. 1-2] Continuation of FIG. 1. I to L; Representative images (I and K) and quantitative data (J and L) of flow cytometry are shown (n=7/group for spleen (J); n=10/group for tumor (L)). *** represents p<0.001. M and N: Tumor growth curves (M) and tumor volumes on day 23 (N) are shown (n=10/group). * represents p<0.05. “ns” represents “not significant”. O and P: Tumor volumes of mice (n=12/group) are shown collectively (O) or individually (P). ** represents p<0.01, and *** represents p<0.001, vs. isotype IgG+vehicle. # represents p<0.05, and […] represents p<0.001, between the indicated groups. Q: Changes in body weight of mice (n=5/group). In FIG. 1, all data are shown as the mean±SEM. All experiments were performed at least twice. Statistical significance was determined using unpaired Student's t-test for (G), (J), (L), and (N), and one-way ANOVA followed by Bonferroni's multiple comparisons test for (B) and (O).
# (§2) First, in vivo activity was assessed using syngeneic MC38 tumors intradermally transplanted into […] mice (FIG. 1-1A).
# Based on these observations, whether the Compound 1 induced antitumor effects were due to enhanced cancer immunity was then examined. Endogenous CD8^+ T cells were depleted using CD8-depleting antibody (αCD8), and the antitumor effects of Compound 1 administration were evaluated (FIG. 1-1H).
# [2] = tested on: B2m-knockout MC38 clones; experiment: B2m KO MC38 clones and negative control clone intradermally inoculated into mice; format: in vivo
# Procedure: [FIG. 3-2] Continuation of FIG. 3. G to J: The experimental schema (G), tumor volumes (H), flow cytometric images (I), as well as quantitative data (J) of tumor-infiltrating CD8^+ T cells on day 23 are shown (n=5 to 9/group). * represents p<0.05, and ** represents p<0.01. K: Tumor volumes of mice (n=5 to 6/group). Mice were intraperitoneally injected with 35 μg of αPD-L1 antibody or isotype control (isotype IgG) once weekly on days 9 and 16 for NC and days 11 and 18 for B2M KO #2. * represents p<0.05. All data are shown as the mean±SEM. Experiments were performed at least twice for A to F, or once for others. Statistical significance was determined using unpaired Student's t-test for (H), (J), and (K) and one-way ANOVA followed by Bonferroni's multiple comparisons test for (D) and (F).
# Furthermore, whether neoantigen presentation in cancer cells is important for the antitumor effects of Compound 1 was investigated by establishing a CRISPR-Cas9-mediated knockout of B2m, an essential component of MHC class I, using MC38 cells. […] It was further confirmed that surface H-2K^b on these cells disappeared (FIGS. 3-1C and 3-1D) without affecting IFN-γ signaling (FIG. 3-1A) and the expression of PD-L1 on the cell surface (FIGS. 3-1E and 3-1F).
# Then, these B2m KO MC38 clones were intradermally inoculated into immunodeficient mice, and the antitumor effects of Compound 1 were evaluated (FIG. 3-2G).
# [3] = tested on: MC38 cells; experiment: Cell proliferation and cell death, CCK-8 and LDH assays; format: cell-based, murine; settings: concentrations effective in vivo
# Procedure: as §1, §2
# [4] = syngeneic MC38 tumors intradermally transplanted
compound,measurement,setting,value
Clc1nc(NCc2ccco2)c2[nH]cnc2n1 [Compound 1],tumor suppression when CD8^+ T cells were depleted,[1]; CD8-depleting antibody (αCD8),not effective
same,suppressed tumor growth,"[1]; day 23, vs. isotype IgG+vehicle",28.5%
same,frequency of tumor-infiltrating CD8+ T cells,"[1]; extracted tumors, flow cytometry",about 1.5 fold
same,changes in the expression of PD-L1,[1]; host dendritic cells or macrophages,not detected
same,body weight or apparent adverse effects,"[1]; mouse, in vivo",no change in body weight or apparent adverse effects
same,in vivo tumor growth,[1]; [4],tumor growth suppression
same,survival,[1]; [4],prolonged survival
same,antitumor effects (tumor growth),[2]; B2m KO clones,completely abolished
same,number of CD8^+ T cells in tumors,[2]; B2m KO-derived tumors,no longer inducible
same,antitumor effects (tumor growth),[2]; negative control clone,suppressed tumor growth
same,cytotoxicity or cytostasis in vitro,[3],not associated with cytotoxicity or cytostasis

# From US20240423988A1, “Improvement of Tumor Immunogenicity by Means of Splicing-Controlling Compound” (Kyoto University, priority 2021, published 2024)
